Experiment [1] has as its target T1, Bone morphogenetic protein receptor type-2 (Homo sapiens) (UniProt Q13873).
T1 sequence (whole entry): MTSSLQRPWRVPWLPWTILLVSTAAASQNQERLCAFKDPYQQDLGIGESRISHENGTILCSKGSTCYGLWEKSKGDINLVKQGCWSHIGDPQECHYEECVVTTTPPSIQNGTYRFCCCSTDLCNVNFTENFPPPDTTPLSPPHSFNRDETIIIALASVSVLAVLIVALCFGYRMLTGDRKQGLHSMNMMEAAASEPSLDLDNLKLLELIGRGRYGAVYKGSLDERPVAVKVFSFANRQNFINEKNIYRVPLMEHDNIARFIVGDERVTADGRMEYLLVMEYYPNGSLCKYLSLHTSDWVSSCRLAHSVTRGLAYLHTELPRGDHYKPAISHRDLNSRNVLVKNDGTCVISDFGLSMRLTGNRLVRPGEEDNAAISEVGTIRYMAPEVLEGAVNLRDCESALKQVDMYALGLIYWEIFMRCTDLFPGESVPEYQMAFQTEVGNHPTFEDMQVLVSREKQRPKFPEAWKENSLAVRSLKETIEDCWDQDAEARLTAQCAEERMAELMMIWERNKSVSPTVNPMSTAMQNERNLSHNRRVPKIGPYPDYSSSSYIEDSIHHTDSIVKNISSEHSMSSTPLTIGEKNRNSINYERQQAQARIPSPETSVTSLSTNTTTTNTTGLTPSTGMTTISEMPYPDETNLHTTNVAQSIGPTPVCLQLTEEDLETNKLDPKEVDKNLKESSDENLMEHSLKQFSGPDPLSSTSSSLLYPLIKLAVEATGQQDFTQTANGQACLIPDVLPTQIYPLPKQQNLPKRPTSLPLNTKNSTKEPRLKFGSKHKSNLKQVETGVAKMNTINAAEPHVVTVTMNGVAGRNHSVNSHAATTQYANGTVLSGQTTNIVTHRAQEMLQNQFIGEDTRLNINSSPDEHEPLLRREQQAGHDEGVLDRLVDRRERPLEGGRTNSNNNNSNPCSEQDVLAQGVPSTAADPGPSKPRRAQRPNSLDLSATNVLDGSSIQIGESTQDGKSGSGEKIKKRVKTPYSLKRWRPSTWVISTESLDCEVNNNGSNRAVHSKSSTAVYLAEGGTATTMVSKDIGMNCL
The experiment is described as follows: Inhibition of BMPR2 (unknown origin) assessed as residual activity at 1000 nM by KINOMEscan analysis relative to control.

Experiment [2] concerns the target T2, Inhibitor of nuclear factor kappa-B kinase subunit beta (Homo sapiens) (UniProt O14920).
T2 sequence (whole entry): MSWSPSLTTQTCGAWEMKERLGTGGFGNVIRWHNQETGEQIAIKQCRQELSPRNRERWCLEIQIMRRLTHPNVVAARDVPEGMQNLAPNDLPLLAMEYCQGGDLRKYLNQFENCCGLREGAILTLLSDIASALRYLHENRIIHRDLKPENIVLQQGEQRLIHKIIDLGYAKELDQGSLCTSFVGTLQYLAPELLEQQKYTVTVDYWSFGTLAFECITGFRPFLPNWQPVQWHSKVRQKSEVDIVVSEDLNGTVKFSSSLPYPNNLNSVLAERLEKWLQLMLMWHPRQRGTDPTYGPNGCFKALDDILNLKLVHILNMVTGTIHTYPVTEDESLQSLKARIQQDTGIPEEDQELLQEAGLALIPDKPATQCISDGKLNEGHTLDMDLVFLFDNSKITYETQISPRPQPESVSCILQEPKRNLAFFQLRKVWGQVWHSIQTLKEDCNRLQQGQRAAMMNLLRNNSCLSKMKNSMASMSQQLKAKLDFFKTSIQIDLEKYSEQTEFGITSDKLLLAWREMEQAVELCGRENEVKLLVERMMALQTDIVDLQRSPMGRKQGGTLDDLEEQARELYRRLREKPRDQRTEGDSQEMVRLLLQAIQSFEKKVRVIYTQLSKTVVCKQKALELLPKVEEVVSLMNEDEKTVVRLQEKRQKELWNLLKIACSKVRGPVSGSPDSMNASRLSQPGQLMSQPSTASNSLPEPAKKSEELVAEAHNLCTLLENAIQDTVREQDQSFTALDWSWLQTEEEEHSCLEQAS
The experiment is described as follows: Inhibition of IKK-beta (unknown origin) assessed as residual activity at 1000 nM by KINOMEscan analysis relative to control.

The subject of experiment [3] is Mast/stem cell growth factor receptor Kit (Homo sapiens), P10721 [V559D,T670I]. The experiment is described as follows: Inhibition of KIT V559D/T670I mutant (unknown origin) assessed as residual activity at 1000 nM by KINOMEscan analysis relative to control.
Experiment [4] deals with Tyrosine-protein kinase ABL1 (Homo sapiens), P00519 [Q252H]. The experiment is described as follows: Inhibition of phosphorylated ABL1 Q252H mutant (unknown origin) assessed as residual activity at 1000 nM by KINOMEscan analysis relative to control.
For the next experiment, the species on record is Homo sapiens. The experiment is described as follows: Inhibition of JNK2 (unknown origin) assessed as residual activity at 1000 nM by KINOMEscan analysis relative to control.
In experiment [5] the test system is Tyrosine-protein kinase ABL1 (Homo sapiens), P00519 [F317I]. The experiment is described as follows: Inhibition of phosphorylated ABL1 F317I mutant (unknown origin) assessed as residual activity at 1000 nM by KINOMEscan analysis relative to control.
The target in experiment [6] is Serine/threonine-protein kinase 32A (Homo sapiens) (UniProt Q8WU08). The experiment is described as follows: Inhibition of YANK1 (unknown origin) assessed as residual activity at 1000 nM by KINOMEscan analysis relative to control.

Molecules are shown by their SMILES.

Chain of Serine/threonine-protein kinase 32A (Homo sapiens) (Q8WU08 whole entry): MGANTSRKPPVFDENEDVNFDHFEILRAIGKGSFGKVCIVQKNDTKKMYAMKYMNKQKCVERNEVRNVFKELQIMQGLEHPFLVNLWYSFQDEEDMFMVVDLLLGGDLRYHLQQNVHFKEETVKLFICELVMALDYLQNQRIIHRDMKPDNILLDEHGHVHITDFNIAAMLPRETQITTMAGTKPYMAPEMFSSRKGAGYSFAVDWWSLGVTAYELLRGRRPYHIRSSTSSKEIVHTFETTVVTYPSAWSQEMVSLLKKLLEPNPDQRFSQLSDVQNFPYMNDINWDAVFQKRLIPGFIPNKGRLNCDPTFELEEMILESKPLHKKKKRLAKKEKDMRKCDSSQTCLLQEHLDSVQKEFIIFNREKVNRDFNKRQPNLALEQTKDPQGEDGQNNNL
Chain of Mast/stem cell growth factor receptor Kit (Homo sapiens), P10721 [V559D,T670I] (P10721 whole entry V559D/T670I): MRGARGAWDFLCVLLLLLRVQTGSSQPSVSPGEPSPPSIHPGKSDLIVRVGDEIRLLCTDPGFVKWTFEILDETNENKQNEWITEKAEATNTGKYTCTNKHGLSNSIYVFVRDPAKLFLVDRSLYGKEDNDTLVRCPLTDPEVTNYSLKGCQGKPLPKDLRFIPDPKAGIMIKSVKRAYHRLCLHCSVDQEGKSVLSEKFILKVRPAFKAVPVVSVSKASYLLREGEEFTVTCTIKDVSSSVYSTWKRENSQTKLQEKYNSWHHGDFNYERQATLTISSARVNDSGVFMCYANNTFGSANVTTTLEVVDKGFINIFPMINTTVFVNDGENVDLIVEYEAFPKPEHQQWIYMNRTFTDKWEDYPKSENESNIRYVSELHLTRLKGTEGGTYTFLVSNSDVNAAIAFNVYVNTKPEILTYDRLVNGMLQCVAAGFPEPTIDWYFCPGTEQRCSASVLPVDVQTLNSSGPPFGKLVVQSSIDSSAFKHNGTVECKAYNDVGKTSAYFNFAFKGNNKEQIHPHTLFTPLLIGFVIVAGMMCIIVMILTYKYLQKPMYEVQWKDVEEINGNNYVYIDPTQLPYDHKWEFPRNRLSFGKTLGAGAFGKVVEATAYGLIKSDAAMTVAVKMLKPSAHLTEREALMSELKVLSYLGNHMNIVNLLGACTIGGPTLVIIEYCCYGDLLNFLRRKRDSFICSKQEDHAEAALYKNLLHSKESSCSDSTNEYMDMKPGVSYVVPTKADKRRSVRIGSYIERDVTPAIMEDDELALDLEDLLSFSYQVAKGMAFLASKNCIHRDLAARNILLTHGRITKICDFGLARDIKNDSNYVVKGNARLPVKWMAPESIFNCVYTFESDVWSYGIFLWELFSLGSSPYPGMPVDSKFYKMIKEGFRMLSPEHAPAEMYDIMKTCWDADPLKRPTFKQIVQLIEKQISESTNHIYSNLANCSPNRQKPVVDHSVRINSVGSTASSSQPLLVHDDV

As to `COc1cc2nc(C)nc(N[C@H](C)c3cccc(-c4cn[nH]c4)c3)c2cc1OC`, the Activity in experiment [1] is 83%; in experiment [2], 73%; in experiment [3], 92%; in experiment [4], 95%; in the experiment filed under Homo sapiens it was 71%; in experiment [5], 75%. Moreover, the Activity in experiment [6] was determined as 97%.

In the case of `COc1cc2ncnc(N[C@H](C)c3cccc4ccccc34)c2cc1OC`, the Activity worked out at 89% in experiment [1]; 82% in experiment [2]; 73% in experiment [3]; 92% in experiment [4]; 93% in the experiment listed under Homo sapiens; 71% in experiment [5]. For the same compound, the Activity in experiment [6] came out at 86%.

Source of the values: ChEMBL document CHEMBL5678818, “Discovery of potent SOS1 inhibitors that block RAS activation via disruption of the RAS-SOS1 interaction” (Proc Natl Acad Sci U S A, 2019).
